Experimental data: PubChem BioAssay AID1963984 (Molecular Pharmacology Branch, DTP, NCI, 2024)

Test system: 233499-124-R-J3-PDC spheroids with HUVEC/MSC, viability
Experiment: Anticancer human tumor 233499-124-R-J3-PDC patient-derived colon adenocarcinoma cell line growth inhibition [PI3K]
Conditions: for IC50: curve of first compound; for viability, T/C: stronger effect = lower value
Summary of the method: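 Stroma-containing spheroids: tumor line, pooled-donor HUVEC, hMSC. Treatments: targeted agents with PI3K inhibitors. Dosing: clinically relevant, half-log spacing, 10 microM ceiling without known Cmax. Read-out: cell viability.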

[1] = second compound 0.00316 µM, first compound 0.0316 µM
[2] = second compound 0.00316 µM, first compound 0.1 µM
[3] = second compound 0.01 µM, first compound 0.0316 µM
[4] = second compound 0.01 µM, first compound 0.1 µM
[5] = second compound 0.0316 µM, first compound 0.0316 µM
[6] = second compound 0.0316 µM, first compound 0.1 µM
[7] = second compound 0.1 µM, first compound 0.0316 µM
[8] = second compound 0.1 µM, first compound 0.1 µM
[9] = second compound 0.316 µM, first compound 0.0316 µM
[10] = second compound 0.316 µM, first compound 0.1 µM
[11] = second compound 1 µM, first compound 0.0316 µM
[12] = second compound 1 µM, first compound 0.1 µM
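Further: spheroids exposed to agents for seven days before readout.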
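Wherever viability, T/C is given: percent viability relative to DMSO vehicle control taken as 100%.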

CC(=O)c1c(C)c2cnc(Nc3ccc(N4CCNCC4)cn3)nc2n(C2CCCC2)c1=O + COc1c(OCCCN2CCOCC2)ccc2c3n(c(=NC(=O)c4cnc(N)nc4)nc12)CCN3 gave an IC50 (second compound 0.00316 µM) of over 100 nM, an IC50 (second compound 0.01 µM) of over 100 nM and an IC50 (second compound 0.0316 µM) of over 100 nM. It also gave an IC50 (second compound 0.1 µM) of over 100 nM, an IC50 (second compound 0.316 µM) of under 0.316 nM and an IC50 (second compound 1 µM) of under 0.316 nM. The viability, T/C (second compound 0.00316 µM, first compound 0.000316 µM) was 106%, the viability, T/C (second compound 0.00316 µM, first compound 0.001 µM) was 106% and the viability, T/C (second compound 0.00316 µM, first compound 0.00316 µM) was 121%. The viability, T/C (second compound 0.00316 µM, first compound 0.01 µM) was 106%, the viability, T/C [1] was 76.5% and the viability, T/C [2] was 61%. For the same molecule, the viability, T/C (second compound 0.01 µM, first compound 0.000316 µM) was 86.5%, the viability, T/C (second compound 0.01 µM, first compound 0.001 µM) was 119% and the viability, T/C (second compound 0.01 µM, first compound 0.00316 µM) was 89.2%. The viability, T/C (second compound 0.01 µM, first compound 0.01 µM) was 89.3%, the viability, T/C [3] was 83% and the viability, T/C [4] was 75.7%. For the same molecule, the viability, T/C (second compound 0.0316 µM, first compound 0.000316 µM) was 90%, the viability, T/C (second compound 0.0316 µM, first compound 0.001 µM) was 95.8% and the viability, T/C (second compound 0.0316 µM, first compound 0.00316 µM) was 94.4%. For the same molecule, the viability, T/C (second compound 0.0316 µM, first compound 0.01 µM) was 86.8%, the viability, T/C [5] was 86.2% and the viability, T/C [6] was 86%. For the same molecule, the viability, T/C (second compound 0.1 µM, first compound 0.000316 µM) was 56.3%, the viability, T/C (second compound 0.1 µM, first compound 0.001 µM) was 78.8% and the viability, T/C (second compound 0.1 µM, first compound 0.00316 µM) was 63.7%. For the same molecule, the viability, T/C (second compound 0.1 µM, first compound 0.01 µM) was 73.2%, the viability, T/C [7] was 61.6% and the viability, T/C [8] was 62.4%. The viability, T/C (second compound 0.316 µM, first compound 0.000316 µM) was 28.7%, the viability, T/C (second compound 0.316 µM, first compound 0.001 µM) was 32.3% and the viability, T/C (second compound 0.316 µM, first compound 0.00316 µM) was 30.3%. For the same molecule, the viability, T/C (second compound 0.316 µM, first compound 0.01 µM) was 31.8%, the viability, T/C [9] was 27.5% and the viability, T/C [10] was 31.2%. For the same molecule, the viability, T/C (second compound 1 µM, first compound 0.000316 µM) was 13.7%, the viability, T/C (second compound 1 µM, first compound 0.001 µM) was 4.51% and the viability, T/C (second compound 1 µM, first compound 0.00316 µM) was 5.25%. It also gave a viability, T/C (second compound 1 µM, first compound 0.01 µM) of 12.8%, a viability, T/C [11] of 10.7% and a viability, T/C [12] of 10.2%.

In the case of CNC(=O)c1ccc(N2C(=S)N(c3ccc(C#N)c(C(F)(F)F)c3)C(=O)C2(C)C)cc1F + COc1c(OCCCN2CCOCC2)ccc2c3n(c(=NC(=O)c4cnc(N)nc4)nc12)CCN3, the IC50 (second compound 0.00316 µM) is reported as over 10000 nM, the IC50 (second compound 0.01 µM) is reported as over 10000 nM and the IC50 (second compound 0.0316 µM) is reported as over 10000 nM. For the same molecule, the IC50 (second compound 0.1 µM) was 4120 nM, the IC50 (second compound 0.316 µM) was under 31.6 nM and the IC50 (second compound 1 µM) was under 31.6 nM. For the same molecule, the viability, T/C [1] was 93.8%, the viability, T/C [2] was 97.3% and the viability, T/C (second compound 0.00316 µM, first compound 0.316 µM) was 97.2%. The viability, T/C (second compound 0.00316 µM, first compound 1 µM) was 81.9%, the viability, T/C (second compound 0.00316 µM, first compound 3.16 µM) was 65.7% and the viability, T/C (second compound 0.00316 µM, first compound 10 µM) was 54.3%. It also gave a viability, T/C [3] of 88.1%, a viability, T/C [4] of 105% and a viability, T/C (second compound 0.01 µM, first compound 0.316 µM) of 99%. The viability, T/C (second compound 0.01 µM, first compound 1 µM) was 87.7%, the viability, T/C (second compound 0.01 µM, first compound 3.16 µM) was 89.9% and the viability, T/C (second compound 0.01 µM, first compound 10 µM) was 60.1%. For the same molecule, the viability, T/C [5] was 101%, the viability, T/C [6] was 85.3% and the viability, T/C (second compound 0.0316 µM, first compound 0.316 µM) was 98.3%. It also gave a viability, T/C (second compound 0.0316 µM, first compound 1 µM) of 78.1%, a viability, T/C (second compound 0.0316 µM, first compound 3.16 µM) of 63.8% and a viability, T/C (second compound 0.0316 µM, first compound 10 µM) of 50.4%. The viability, T/C [7] was 84%, the viability, T/C [8] was 53.8% and the viability, T/C (second compound 0.1 µM, first compound 0.316 µM) was 75.2%. The viability, T/C (second compound 0.1 µM, first compound 1 µM) was 64.2%, the viability, T/C (second compound 0.1 µM, first compound 3.16 µM) was 47.4% and the viability, T/C (second compound 0.1 µM, first compound 10 µM) was 44%. The viability, T/C [9] was 33%, the viability, T/C [10] was 30.5% and the viability, T/C (second compound 0.316 µM, first compound 0.316 µM) was 44.1%. It also gave a viability, T/C (second compound 0.316 µM, first compound 1 µM) of 32.3%, a viability, T/C (second compound 0.316 µM, first compound 3.16 µM) of 30.7% and a viability, T/C (second compound 0.316 µM, first compound 10 µM) of 12.1%. It also gave a viability, T/C [11] of 10%, a viability, T/C [12] of 24.7% and a viability, T/C (second compound 1 µM, first compound 0.316 µM) of 6.89%. For the same molecule, the viability, T/C (second compound 1 µM, first compound 1 µM) was 5.24%, the viability, T/C (second compound 1 µM, first compound 3.16 µM) was 10.3% and the viability, T/C (second compound 1 µM, first compound 10 µM) was 4.27%.

Cn1cnc2c(F)c(Nc3ccc(Br)cc3Cl)c(C(=O)NOCCO)cc21 + COc1c(OCCCN2CCOCC2)ccc2c3n(c(=NC(=O)c4cnc(N)nc4)nc12)CCN3 showed an IC50 (second compound 0.00316 µM) of 378 nM, an IC50 (second compound 0.01 µM) of 760 nM and an IC50 (second compound 0.0316 µM) of 131 nM. For the same molecule, the IC50 (second compound 0.1 µM) was 54 nM, the IC50 (second compound 0.316 µM) was under 9.49 nM and the IC50 (second compound 1 µM) was under 9.49 nM. It also gave a viability, T/C (second compound 0.00316 µM, first compound 0.00949 µM) of 55.7%, a viability, T/C (second compound 0.00316 µM, first compound 0.03 µM) of 73.5% and a viability, T/C (second compound 0.00316 µM, first compound 0.0949 µM) of 76.5%. The viability, T/C (second compound 0.00316 µM, first compound 0.3 µM) was 54.9%, the viability, T/C (second compound 0.00316 µM, first compound 0.949 µM) was 31.2% and the viability, T/C (second compound 0.00316 µM, first compound 3 µM) was 29.5%. For the same molecule, the viability, T/C (second compound 0.01 µM, first compound 0.00949 µM) was 75.2%, the viability, T/C (second compound 0.01 µM, first compound 0.03 µM) was 80.8% and the viability, T/C (second compound 0.01 µM, first compound 0.0949 µM) was 75.5%. The viability, T/C (second compound 0.01 µM, first compound 0.3 µM) was 56%, the viability, T/C (second compound 0.01 µM, first compound 0.949 µM) was 50.3% and the viability, T/C (second compound 0.01 µM, first compound 3 µM) was 24.6%. For the same molecule, the viability, T/C (second compound 0.0316 µM, first compound 0.00949 µM) was 68.3%, the viability, T/C (second compound 0.0316 µM, first compound 0.03 µM) was 78.9% and the viability, T/C (second compound 0.0316 µM, first compound 0.0949 µM) was 54.1%. The viability, T/C (second compound 0.0316 µM, first compound 0.3 µM) was 34.2%, the viability, T/C (second compound 0.0316 µM, first compound 0.949 µM) was 30.4% and the viability, T/C (second compound 0.0316 µM, first compound 3 µM) was 20.1%. It also gave a viability, T/C (second compound 0.1 µM, first compound 0.00949 µM) of 71.5%, a viability, T/C (second compound 0.1 µM, first compound 0.03 µM) of 67.5% and a viability, T/C (second compound 0.1 µM, first compound 0.0949 µM) of 33.1%. The viability, T/C (second compound 0.1 µM, first compound 0.3 µM) was 28.2%, the viability, T/C (second compound 0.1 µM, first compound 0.949 µM) was 19.1% and the viability, T/C (second compound 0.1 µM, first compound 3 µM) was 17.9%. It also gave a viability, T/C (second compound 0.316 µM, first compound 0.00949 µM) of 41.3%, a viability, T/C (second compound 0.316 µM, first compound 0.03 µM) of 34.2% and a viability, T/C (second compound 0.316 µM, first compound 0.0949 µM) of 13.1%. The viability, T/C (second compound 0.316 µM, first compound 0.3 µM) was 10.2%, the viability, T/C (second compound 0.316 µM, first compound 0.949 µM) was 5.14% and the viability, T/C (second compound 0.316 µM, first compound 3 µM) was 6.9%. The viability, T/C (second compound 1 µM, first compound 0.00949 µM) was 2.93%, the viability, T/C (second compound 1 µM, first compound 0.03 µM) was 7.86% and the viability, T/C (second compound 1 µM, first compound 0.0949 µM) was 4.9%. The viability, T/C (second compound 1 µM, first compound 0.3 µM) was 0.96%, the viability, T/C (second compound 1 µM, first compound 0.949 µM) was 1.18% and the viability, T/C (second compound 1 µM, first compound 3 µM) was 1.01%.
